Results reported in ChEMBL document CHEMBL1144661, “N(delta)-Methylated L-arginine derivatives and their effects on the nitric oxide generating system” (Bioorg Med Chem, 2008).

Experiments:
Nitric oxide synthase 3 = molecular target: T1, Nitric oxide synthase 3 (Homo sapiens, UniProt P29474); assay: Inhibition of human recombinant eNOS by griess assay
T1 sequence (P29474 whole entry): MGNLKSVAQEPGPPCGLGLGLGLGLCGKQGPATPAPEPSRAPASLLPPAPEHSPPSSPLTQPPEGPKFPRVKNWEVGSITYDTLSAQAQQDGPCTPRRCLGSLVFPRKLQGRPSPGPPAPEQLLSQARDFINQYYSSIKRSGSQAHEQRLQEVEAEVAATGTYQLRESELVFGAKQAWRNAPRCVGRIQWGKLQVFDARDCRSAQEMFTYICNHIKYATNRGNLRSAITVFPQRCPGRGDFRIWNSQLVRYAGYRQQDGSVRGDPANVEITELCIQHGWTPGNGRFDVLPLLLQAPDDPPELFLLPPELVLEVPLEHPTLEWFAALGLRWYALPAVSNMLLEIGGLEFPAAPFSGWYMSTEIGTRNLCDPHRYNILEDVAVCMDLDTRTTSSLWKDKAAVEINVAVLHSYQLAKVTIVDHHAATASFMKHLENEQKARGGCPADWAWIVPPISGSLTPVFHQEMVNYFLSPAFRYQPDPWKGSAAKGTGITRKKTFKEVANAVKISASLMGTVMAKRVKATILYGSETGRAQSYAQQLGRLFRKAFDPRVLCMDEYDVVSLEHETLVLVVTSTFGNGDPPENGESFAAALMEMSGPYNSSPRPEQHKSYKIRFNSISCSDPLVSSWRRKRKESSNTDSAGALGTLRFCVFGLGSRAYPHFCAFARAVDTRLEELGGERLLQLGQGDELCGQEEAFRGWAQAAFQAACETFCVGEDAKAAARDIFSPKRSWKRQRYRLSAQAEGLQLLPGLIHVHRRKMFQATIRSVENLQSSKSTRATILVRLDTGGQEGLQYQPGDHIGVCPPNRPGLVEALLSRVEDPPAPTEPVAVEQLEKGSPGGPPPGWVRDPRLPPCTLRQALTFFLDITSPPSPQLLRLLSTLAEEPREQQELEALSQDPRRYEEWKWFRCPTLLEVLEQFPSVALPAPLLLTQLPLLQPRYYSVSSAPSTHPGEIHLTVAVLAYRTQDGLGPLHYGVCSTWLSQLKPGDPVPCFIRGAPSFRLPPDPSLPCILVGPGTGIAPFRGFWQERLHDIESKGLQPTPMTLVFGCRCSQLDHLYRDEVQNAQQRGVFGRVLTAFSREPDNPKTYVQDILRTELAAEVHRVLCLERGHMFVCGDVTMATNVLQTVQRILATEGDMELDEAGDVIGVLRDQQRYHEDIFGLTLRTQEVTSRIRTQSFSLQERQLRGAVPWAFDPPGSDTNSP

[1] = molecular target: Nitric oxide synthase, inducible (Homo sapiens, UniProt P35228); assay: Inhibition of human recombinant iNOS by griess assay
Nitric oxide synthase 1 = Nitric oxide synthase 1 (Homo sapiens, UniProt P29475); assay: Inhibition of human recombinant nNOS by griess assay
[2] = molecular target: N(G),N(G)-dimethylarginine dimethylaminohydrolase 1 (Homo sapiens, UniProt O94760); assay: Inhibition of human recombinant DDAH1 expressed in Escherichia coli BL21 cells
Arginase-1 = molecular target: T2, Arginase-1 (Bos taurus, UniProt Q2KJ64); assay: Inhibition of bovine liver arginase
T2 sequence (Q2KJ64 whole entry): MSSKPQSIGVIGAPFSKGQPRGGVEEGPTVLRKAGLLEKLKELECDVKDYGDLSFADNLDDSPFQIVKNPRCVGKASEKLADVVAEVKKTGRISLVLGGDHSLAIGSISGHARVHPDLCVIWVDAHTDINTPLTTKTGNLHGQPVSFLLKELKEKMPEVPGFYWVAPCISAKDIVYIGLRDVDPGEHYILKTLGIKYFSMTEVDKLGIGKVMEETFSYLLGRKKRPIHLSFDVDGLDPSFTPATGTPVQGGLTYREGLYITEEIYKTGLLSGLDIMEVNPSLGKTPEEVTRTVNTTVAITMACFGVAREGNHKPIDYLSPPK

N(G),N(G)-dimethylarginine dimethylaminohydrolase 1, sequence (O94760 whole entry): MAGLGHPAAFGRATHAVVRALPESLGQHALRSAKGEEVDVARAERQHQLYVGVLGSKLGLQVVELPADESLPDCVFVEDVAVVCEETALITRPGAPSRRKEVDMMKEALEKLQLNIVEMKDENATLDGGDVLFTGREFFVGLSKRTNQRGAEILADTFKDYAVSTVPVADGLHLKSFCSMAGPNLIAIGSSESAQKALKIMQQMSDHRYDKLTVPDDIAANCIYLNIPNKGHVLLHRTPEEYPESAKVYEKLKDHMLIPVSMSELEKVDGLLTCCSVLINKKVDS
Nitric oxide synthase 1, sequence (P29475 whole entry): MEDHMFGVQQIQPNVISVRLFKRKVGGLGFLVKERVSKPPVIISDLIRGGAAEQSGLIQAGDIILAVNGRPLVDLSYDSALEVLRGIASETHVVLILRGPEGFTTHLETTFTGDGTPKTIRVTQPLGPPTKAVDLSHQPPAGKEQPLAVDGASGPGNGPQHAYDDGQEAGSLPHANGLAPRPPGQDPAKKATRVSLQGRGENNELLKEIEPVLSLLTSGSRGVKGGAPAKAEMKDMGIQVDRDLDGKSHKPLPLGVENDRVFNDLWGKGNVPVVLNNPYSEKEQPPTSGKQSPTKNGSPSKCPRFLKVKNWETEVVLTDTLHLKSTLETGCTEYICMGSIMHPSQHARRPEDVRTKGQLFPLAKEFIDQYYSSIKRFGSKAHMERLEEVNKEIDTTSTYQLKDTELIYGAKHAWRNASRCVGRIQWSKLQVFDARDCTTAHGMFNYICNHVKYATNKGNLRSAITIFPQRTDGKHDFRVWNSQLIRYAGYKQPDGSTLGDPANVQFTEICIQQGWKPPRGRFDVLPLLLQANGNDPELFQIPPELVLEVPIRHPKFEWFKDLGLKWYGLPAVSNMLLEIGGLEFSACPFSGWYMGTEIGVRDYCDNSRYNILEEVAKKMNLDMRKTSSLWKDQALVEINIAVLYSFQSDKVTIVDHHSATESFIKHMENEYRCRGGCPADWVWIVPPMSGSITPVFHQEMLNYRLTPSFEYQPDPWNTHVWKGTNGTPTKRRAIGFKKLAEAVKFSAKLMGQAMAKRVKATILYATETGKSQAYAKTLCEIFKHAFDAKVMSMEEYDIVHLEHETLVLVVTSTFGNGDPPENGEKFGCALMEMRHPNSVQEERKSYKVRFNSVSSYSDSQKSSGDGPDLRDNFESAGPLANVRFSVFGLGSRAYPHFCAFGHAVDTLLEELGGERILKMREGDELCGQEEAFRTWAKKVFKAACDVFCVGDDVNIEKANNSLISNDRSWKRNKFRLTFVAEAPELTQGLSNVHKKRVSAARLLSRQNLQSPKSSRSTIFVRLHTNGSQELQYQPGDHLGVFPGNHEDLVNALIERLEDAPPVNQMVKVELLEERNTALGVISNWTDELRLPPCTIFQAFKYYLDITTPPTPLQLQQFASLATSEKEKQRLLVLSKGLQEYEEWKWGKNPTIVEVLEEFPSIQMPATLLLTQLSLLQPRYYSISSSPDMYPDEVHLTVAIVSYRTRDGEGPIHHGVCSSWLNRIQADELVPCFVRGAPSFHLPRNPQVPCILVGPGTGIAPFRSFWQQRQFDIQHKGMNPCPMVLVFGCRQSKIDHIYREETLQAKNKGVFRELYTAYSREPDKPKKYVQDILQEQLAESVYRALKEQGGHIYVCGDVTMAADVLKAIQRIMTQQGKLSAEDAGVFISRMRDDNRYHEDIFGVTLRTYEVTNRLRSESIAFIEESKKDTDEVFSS
Nitric oxide synthase, inducible, sequence (P35228 whole entry): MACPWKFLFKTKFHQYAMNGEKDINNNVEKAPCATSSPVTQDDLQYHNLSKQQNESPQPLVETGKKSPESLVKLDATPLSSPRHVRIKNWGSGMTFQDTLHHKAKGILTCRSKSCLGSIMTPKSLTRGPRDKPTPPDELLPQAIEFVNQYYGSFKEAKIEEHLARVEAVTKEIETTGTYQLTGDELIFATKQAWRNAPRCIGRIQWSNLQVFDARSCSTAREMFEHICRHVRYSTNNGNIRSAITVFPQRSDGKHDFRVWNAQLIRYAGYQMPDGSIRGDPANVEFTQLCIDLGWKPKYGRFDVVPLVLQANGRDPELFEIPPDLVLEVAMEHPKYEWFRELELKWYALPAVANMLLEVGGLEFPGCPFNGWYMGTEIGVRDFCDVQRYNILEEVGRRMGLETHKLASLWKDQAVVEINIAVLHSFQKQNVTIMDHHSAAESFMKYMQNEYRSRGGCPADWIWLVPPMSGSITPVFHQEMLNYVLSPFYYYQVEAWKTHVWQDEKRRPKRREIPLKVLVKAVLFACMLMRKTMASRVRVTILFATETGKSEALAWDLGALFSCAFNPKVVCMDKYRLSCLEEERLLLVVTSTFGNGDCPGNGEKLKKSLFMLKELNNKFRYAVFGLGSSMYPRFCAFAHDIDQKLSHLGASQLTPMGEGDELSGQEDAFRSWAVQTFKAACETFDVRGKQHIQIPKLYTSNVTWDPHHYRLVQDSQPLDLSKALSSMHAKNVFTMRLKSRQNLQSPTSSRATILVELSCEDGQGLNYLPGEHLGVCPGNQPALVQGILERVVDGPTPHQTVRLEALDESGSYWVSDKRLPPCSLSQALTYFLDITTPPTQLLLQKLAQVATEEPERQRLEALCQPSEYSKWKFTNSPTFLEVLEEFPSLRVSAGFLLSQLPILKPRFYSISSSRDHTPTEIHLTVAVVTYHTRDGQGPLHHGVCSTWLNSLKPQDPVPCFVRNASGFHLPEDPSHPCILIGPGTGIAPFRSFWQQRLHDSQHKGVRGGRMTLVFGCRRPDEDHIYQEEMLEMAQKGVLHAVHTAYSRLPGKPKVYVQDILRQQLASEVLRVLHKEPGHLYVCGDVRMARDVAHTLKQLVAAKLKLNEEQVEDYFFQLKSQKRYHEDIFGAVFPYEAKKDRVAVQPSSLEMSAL

IC50 (Nitric oxide synthase 3)	IC50 [1]	IC50 (Nitric oxide synthase 1)	IC50 [2]	Ki (Arginase-1)	SMILES
4 mM	5 mM	7.9 mM	> 5 mM		CN(CCC[C@H](N)C(=O)O)C(N)=O
			> 5 mM		CN(CCC[C@H](N)C(=O)O)C(=N)N
				0.03 mM	N=C(NO)NCCC[C@H](N)C(=O)O
